Experimental data published in patent US20240041042A1, “1-(PYRIDYL)-5-AZINYLPYRAZOLE DERIVATIVES, AND THEIR USE FOR CONTROL OF UNDESIRED PLANT GROWTH” (Bayer Aktiengesellschaft, priority 2020, published 2024).
Where two headings read alike, the source gives them in different places.

Experiments:
Format in all cases: in vivo
[1] = tested on: Amaranthus retroflexus (AMARE); assay: Pre-emergence herbicidal action against AMARE; details: 320 g/ha, visual scoring after about 3 weeks vs untreated controls
How it was run: (§1)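 Greenhouse pot trial: seeds sown, soil-covered, sprayed before emergence with compound in water (0.5% additive; 600 l/ha; ≤320 g/ha). Scoring visual, ~3 weeks, 0–100% scale vs untreated.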

Setaria viridis (SETVI) [2] = assay: Pre-emergence herbicidal action against SETVI
How it was run: as §1

Oryza sativa (ORYSA) [3] = details: pre-emergence, crop plant compatibility, in comparison to untreated controls
How it was run: (§2)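 Scoring: visual, % of untreated control, about 3 weeks after a pre-emergence application to the soil surface. Application used WP or EC formulations diluted in water with 0.5% additive at 600 l/ha; dosage levels are marked by suffixes a, b and c.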

[4] = tested on: Triticum aestivum (TRZAS); details: pre-emergence, crop plant compatibility, in comparison to untreated controls
How it was run: as §2

Zea mays (ZEAMX) [5] = details: pre-emergence, crop plant compatibility, in comparison to untreated controls
How it was run: as §2

[6] = tested on: Amaranthus retroflexus (AMARE); assay: Post-emergence herbicidal action against AMARE
How it was run: (§3)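 Greenhouse plants sprayed at the one-leaf stage, 2–3 weeks after sowing, with WP or EC formulations plus 0.5% additive at 600 l/ha water. Activity rated visually after about 3 weeks versus untreated controls (100% = dead, 0% = like control), at 320 g/ha or lower.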

Oryza sativa (ORYSA) [7] = details: crop plant compatibility
How it was run: (§4)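 Test crops were treated 2 to 3 weeks after sowing, once they reached one leaf, by spraying compound in water with 0.5% additive at 600 l/ha. Visual scoring compared them with untreated controls roughly 3 weeks on, and appendices a, b and c denote different doses.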

[8] = tested on: Triticum aestivum (TRZAS); details: crop plant compatibility, effect vs untreated controls
How it was run: as §4

Zea mays (ZEAMX) [9] = details: for Post-emergence action against ZEAMX in %: crop plant compatibility, effect vs untreated controls
How it was run: as §4

[10] = tested on: Alopecurus myosuroides (ALOMY); assay: Pre-emergence herbicidal action against ALOMY; details: 320 g/ha; scored visually after about 3 weeks; 100% = plants have died
How it was run: as §1

Avena fatua (AVEFA) [11] = assay: Pre-emergence herbicidal action against AVEFA; details: 320 g/ha, visual scoring after about 3 weeks vs untreated controls
How it was run: as §1

[12] = tested on: Echinochloa crus-galli (ECHCG); assay: Pre-emergence herbicidal action against ECHCG; details: dosage 320 g/ha
How it was run: as §1

Lolium rigidum (LOLRI) [13] = assay: Pre-emergence herbicidal action against LOLRI; details: dosage 320 g/ha
How it was run: as §1

[14] = tested on: Verconica persica (VERPE); assay: Pre-emergence herbicidal action against VERPE
How it was run: as §1

Viola tricolor (VIOTR) [15] = assay: Pre-emergence herbicidal action against VIOTR
How it was run: as §1

Brassica napus (BRSNW) = details: 80 g/ha, crop plant compatibility, in comparison to untreated controls
How it was run: as §2

[16] = tested on: Alopecurus myosuroides (ALOMY); assay: Post-emergence herbicidal action against ALOMY; details: visual rating about 3 weeks after treatment vs untreated controls (100% = plants have died, 0% = like control plants)
How it was run: as §3

Avena fatua (AVEFA) [17] = assay: Post-emergence herbicidal action against AVEFA; details: 80 g/ha, visual rating about 3 weeks after treatment
How it was run: as §3

Lolium rigidum (LOLRI) [18] = assay: Post-emergence herbicidal action against LOLRI
How it was run: as §3

Viola tricolor (VIOTR) [19] = assay: Post-emergence herbicidal action against VIOTR
How it was run: as §3

[20] = tested on: Matricaria inodora (MATIN); assay: Pre-emergence herbicidal action against MATIN; details: dosage 320 g/ha
How it was run: as §1

[21] = tested on: Pharbitis purpurea (PHBPU); assay: Pre-emergence herbicidal action against PHBPU; details: dosage 320 g/ha
How it was run: as §1

[22] = tested on: Abutilon theophrasti (ABUTH); assay: Post-emergence herbicidal action against ABUTH; details: 320 g/ha, visual rating about 3 weeks after treatment vs untreated controls (100% = plants have died, 0% = like control plants)
How it was run: as §3

[23] = tested on: Echinochloa crus-galli (ECHCG); assay: Post-emergence herbicidal action against ECHCG; details: dosage 320 g/ha
How it was run: as §3

[24] = tested on: Pharbitis purpurea (PHBPU); assay: Post-emergence herbicidal action against PHBPU; details: dosage 320 g/ha
How it was run: as §3

[25] = tested on: Polygonum convolvulus (POLCO); assay: Post-emergence herbicidal action against POLCO; details: dosage 320 g/ha
How it was run: as §3

Setaria viridis (SETVI) [26] = assay: Post-emergence herbicidal action against SETVI; details: dosage 320 g/ha
How it was run: as §3

[27] = tested on: Verconica persica (VERPE); assay: Post-emergence herbicidal action against VERPE; details: 320 g/ha, VERPE
How it was run: as §3

[28] = 320 g/ha, visual rating about 3 weeks after treatment
[29] = 80 g/ha, effect in comparison to untreated controls
[30] = 320 g/ha, effect in comparison to untreated controls

Row | Structure (SMILES) | Pre-emergence action against AMARE in % [1] [%] | Pre-emergence action against SETVI in % (Setaria viridis (SETVI) [2]; dosage 320 g/ha) [%] | Pre-emergence action against ORYSA in % (Oryza sativa (ORYSA) [3]; 80 g/ha) [%] | Pre-emergence action against ORYSA in % (Oryza sativa (ORYSA) [3]; 320 g/ha) [%] | Pre-emergence action against TRZAS in % ([4]; 80 g/ha) [%] | Pre-emergence action against ZEAMX in % (Zea mays (ZEAMX) [5]; 80 g/ha) [%] | Post-emergence action against AMARE in % [6, 28] [%] | Post-emergence action against ORYSA in % (Oryza sativa (ORYSA) [7]; [29]) [%] | Post-emergence action against ORYSA in % (Oryza sativa (ORYSA) [7]; [30]) [%] | Post-emergence action against TRZAS in % ([8]; 80 g/ha) [%] | Post-emergence action against ZEAMX in % (Zea mays (ZEAMX) [9]; 80 g/ha) [%] | Post-emergence action against ZEAMX in % (Zea mays (ZEAMX) [9]; 320 g/ha) [%] | Pre-emergence action against ALOMY [10] [%] | Pre-emergence action against ECHCG in % [12] [%] | Pre-emergence action against LOLRI in % (Lolium rigidum (LOLRI) [13]) [%] | Pre-emergence action against VERPE in % ([14]; dosage 320 g/ha) [%] | further results
1 | O=C(O)COc1nn(-c2ccnc(F)c2)c(-c2ccc(F)nc2)c1Br [III-02] | 80 | 80 | 0 | 0 | 0 | 20 | 80 | 0 | 20 | 20 | 10 | 20 | – | – | – | – | Pre-emergence action against TRZAS in % ([4]; 320 g/ha): 20%
2 | CCOC(=O)C(C)Oc1nn(-c2ccccn2)c(-c2ccc(F)nc2)c1I (stereo not drawn) [Example I-101] | 100 | 100 | – | – | – | – | – | 10 | – | – | 10 | – | 100 | 90 | 100 | 100 | Pre-emergence action against AVEFA in % (Avena fatua (AVEFA) [11]): 90%; Pre-emergence action against SETVI in % (Setaria viridis (SETVI) [2]; dosage 80 g/ha): 90%; Pre-emergence action against VIOTR in % (Viola tricolor (VIOTR) [15]; 320 g/ha, Viola tricolor): 100%; Pre-emergence action against VIOTR in % (Viola tricolor (VIOTR) [15]; dosage 80 g/ha): 80%; Pre-emergence action against BRSNW in % (Brassica napus (BRSNW)): 10%; Post-emergence action against ALOMY in % ([16]; 80 g/ha): 90%; Post-emergence action against AVEFA in % (Avena fatua (AVEFA) [17]): 80%; Post-emergence action against LOLRI in % (Lolium rigidum (LOLRI) [18]; dosage 80 g/ha): 90%; Post-emergence action against VIOTR in % (Viola tricolor (VIOTR) [19]; 80 g/ha): 80%; Post-emergence action against ORYSA in % (Oryza sativa (ORYSA) [7]; 20 g/ha, effect vs untreated controls): 0%; Post-emergence action against ZEAMX in % (crop plant compatibility) (Zea mays (ZEAMX) [9]; 20 g/ha, ZEAMX, effect in comparison to untreated controls): 10%
3 | COC(=O)[C@H](C)NC(=O)COc1nn(-c2ccnc(F)c2)c(-c2ccc(F)nc2)c1Br [III-28] | 80 | – | 0 | 10 | 0 | 0 | 80 | 0 | 0 | – | 0 | 0 | – | – | – | 80 | Pre-emergence action against ZEAMX in % (Zea mays (ZEAMX) [5]; 320 g/ha): 10%; Post-emergence action against AMARE in % ([6]; 80 g/ha, visual rating about 3 weeks after treatment vs untreated controls (100% = plants have died, 0% = like control plants)): 80%
4 | Cc1cccc(-n2nc(OCC(=O)O)c(Br)c2-c2ccc(F)nc2)n1 [Example I-376] | 90 | 100 | 20 | – | 10 | 10 | 80 | 0 | 20 | 0 | 10 | – | 80 | 90 | 90 | 80 | Pre-emergence action against MATIN in % [20]: 80%; Pre-emergence action against PHBPU in % [21]: 90%; Pre-emergence action against VERPE in % ([14]; dosage 80 g/ha): 80%; Post-emergence action against ABUTH in % [22]: 80%; Post-emergence action against ALOMY in % ([16]; 320 g/ha): 80%; Post-emergence action against ECHCG in % [23]: 90%; Post-emergence action against LOLRI in % (Lolium rigidum (LOLRI) [18]; dosage 320 g/ha): 90%; Post-emergence action against PHBPU in % [24]: 80%; Post-emergence action against POLCO in % [25]: 80%; Post-emergence action against SETVI in % (Setaria viridis (SETVI) [26]): 80%; Post-emergence action against VERPE in % [27]: 80%; Post-emergence action against VIOTR in % (Viola tricolor (VIOTR) [19]; 320 g/ha): 80%; Post-emergence action against TRZAS in % ([8]; 320 g/ha): 20%
